Laboratory results from US20210333284A1, “METHODS AND MATERIALS FOR LARGE-SCALE ASSESSMENT OF LIGAND BINDING SELECTIVITY OF G-QUADRUPLEX RECOGNITION USING CUSTOM G4 MICROARRAYS” (Purdue Research Foundation, priority 2020, published 2021).

What was measured:
[1] = test system: G4 sequences on custom G4 microarray; experiment: G4 microarray competition of unlabeled molecule with Cy5-PDS; format: binding, human
Excerpt: (§1) Whether the microarray platform could be used to reveal the G4-binding specificity of unlabeled molecules via a competition with Cy5-PDS binding was explored. Three example molecules, unlabeled PDS, TMPyP4 (a planar molecule that nonspecifically binds G4 structures^14), and DC-34 (a molecule that selectively binds the MYC G4^15) were examined. […] The binding of unlabeled DC-34 was examined (FIG. 4). There appear to be no features that are better-bound in the presence of DC-34. […] This is consistent with the observation that DC-34 binds the top and bottom surfaces of the G4 and makes specific contacts with purines in the tail sequences.^15 The general properties of features in which DC-34 reduced binding of Cy5-PDS (ratio of PDS/PDS+DC-34) were also examined.
Microarrays were preincubated with a 100 mM potassium chloride solution for 1 h at RT to induce G4 formation. Protein binding microarray experiments were then performed as previously described.^23 Microarrays were blocked with 4% nonfat dry milk in a potassium phosphate buffer before incubation with proteins or small molecules. Expressed proteins were blocked with 4% nonfat dry milk, ssDNA, and BSA. For the validation experiments, microarrays were also treated with 100 mM lithium chloride to inhibit G4 formation. For experiments examining dsDNA, single-stranded DNA probes were made double-stranded using a primer complementary to a 24-mer constant sequence following the method described previously.^23,24 Double stranding efficiency was monitored using 4% Cy3-dCTP.
Protein or molecule-bound microarrays were scanned with the G5761A SureScan Dx Microarray Scanner System (Agilent) to detect a Cy5 signal at two laser settings (30 and 100 PMT) to ensure signal intensities were below saturation. Spot intensities from microarray images were extracted using the Agilent Feature Extraction Software and are reported as raw fluorescence units. All binding assays were performed at least twice, with high agreement between replicates (R>0.8). Microarrays with the fewest number of saturated spots were used for further analysis. […] The measured array data (Design 3, PDS) and predictions were normalized using the following
Custom G4 microarrays have been designed that contain a total of 19,249 G4 DNA sequences [31, the entirety of disclosure of which, including the supplemental information, is incorporated herein by reference]. […] After washing to remove the unbound Cy5-PDS and BMVC, the fluorescence intensities of Cy5-PDS bound to DNA oligonucleotides were detected using a fluorescence scanner. The binding selectivity of BMVC to different G4 structures was assessed by measuring the relative fluorescence intensity reduction of Cy5-PDS as BMVC concentration increased. […]

[2] = test system: MYC G4 flanking variants 5′-NNGGGTGGGGAGGGTGGGNN-3′; experiment: G4 microarray competition with Cy5-PDS, flanking (tail) variants; design: species or system human; settings: from reduction of Cy5-PDS binding in the presence of competitor
Excerpt: as §1, with “also examined. […]” for “also examined.”
DNA Microarray Binding Experiments DNA microarray experiments were performed and analyzed as described previously. […]
Data Processing and Analysis Molecule-bound microarrays were scanned with an Agilent G5761A SureScan Dx Microarray Scanner System to detect Cy5 signal at two laser settings (30 and 100 PMT). Spot intensities from microarray images were extracted using Agilent Feature Extraction Software and are reported as raw fluorescence intensities. […]

`C[n+]1ccc(/C=C/c2ccc3[nH]c4ccc(/C=C/c5cc[n+](C)cc5)cc4c3c2)cc1.[I-].[I-]` [BMVC, 3,6-Bis(1-methyl-4-vinylpyridinium) carbazole diiodide] was tested, and the “binding selectivity profile to different G4 sequences” value ([1]; 1 μM unlabeled ligand and 1 μM Cy5-PDS) was “more pronounced binding selectivity”, the “reduction of fluorescence intensity of Cy5-PDS” value ([1]; most known G4s, 1 μM Cy5-PDS, equimolar (1 μM) BMVC) was 50% and the “flanking sequence preference of competitor” value [2] was “strongly prefers the MYC G4 with the 3′-flanking T”.
